Data reported in ChEMBL document CHEMBL1201862, “PubChem BioAssay data set” (2004).
Counter-ions that a name gives are not always drawn.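 48-hour exposure; five concentrations; linearly interpolated endpoints. GI50 is the concentration that inhibits growth by half.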 Activity calls are given as the source filed them. Rule as the data show it: active = GI50 up to about 1.1 µM and inactive = higher.

What was measured:
Test in all cases: NCI-60 cell line screen, 48 h
786-0 = tested on: 786-0
CAKI-1 = tested on: CAKI-1
Hs-578T = tested on: Hs-578T
SN12C = tested on: SN12C
NCI-H226 = tested on: NCI-H226
NCI-H23 = tested on: NCI-H23
A498 = tested on: A498
SNB-19 = tested on: SNB-19
MDA-MB-231 = tested on: MDA-MB-231
NCI-H522 = tested on: NCI-H522
HOP-92 = tested on: HOP-92
SW-620 = tested on: SW-620
HCT-116 = tested on: HCT-116
UACC-62 = tested on: UACC-62
UO-31 = tested on: UO-31
BT-549 = tested on: BT-549
HOP-62 = tested on: HOP-62
SNB-75 = tested on: SNB-75
RPMI-8226 = tested on: RPMI-8226
MOLT-4 = tested on: MOLT-4

Row | SMILES | GI50 (786-0) | GI50 (CAKI-1) | GI50 (Hs-578T) | GI50 (SN12C) | GI50 (NCI-H226) | GI50 (NCI-H23) | GI50 (A498) | GI50 (SNB-19) | GI50 (MDA-MB-231) | GI50 (NCI-H522) | GI50 (HOP-92) | GI50 (SW-620) | GI50 (HCT-116) | GI50 (UACC-62) | GI50 (UO-31) | GI50 (BT-549) | GI50 (HOP-62) | GI50 (SNB-75) | GI50 (RPMI-8226) | GI50 (MOLT-4)
1 | CC(C)C(C/C=C1/CC(CO)(COC(=O)CC(C(C)C)C(C)C)OC1=O)C(C)C (stereo not given) | 5.61 µM (inactive) | 2.15 µM (inactive) | 0.102 µM (active) | 14.2 µM (inactive) | 8.93 µM (inactive) | 14.7 µM (inactive) | 2.98 µM (inactive) | 12.5 µM (inactive) | 4.21 µM (inactive) | 12.9 µM (inactive) | 0.998 µM (active) | 0.991 µM (active) | 16.2 µM (inactive) | 15.7 µM (inactive) | 2.86 µM (inactive) | 15 µM (inactive) | 1.34 µM (inactive) | 1.78 µM (inactive) | – | –
2 | CC1=NN(C(=O)CC(=O)NC(=O)/C=C\c2ccccc2)C(=O)C1/N=N/c1ccc([N+](=O)[O-])cc1 (stereo not given) | 83.8 µM (inactive) | 30.6 µM (inactive) | 44 µM (inactive) | > 100 µM (inactive) | – | 40.2 µM (inactive) | 20.5 µM (inactive) | > 100 µM (inactive) | > 100 µM (inactive) | – | 38.3 µM (inactive) | > 100 µM (inactive) | 35.6 µM (inactive) | 24.3 µM (inactive) | 48 µM (inactive) | 19.1 µM (inactive) | > 100 µM (inactive) | 52.4 µM (inactive) | 85.5 µM (inactive) | 60.1 µM (inactive)
3 | O=C1C=CC2(C=C1)O[C@H](CCc1ccccc1)[C@@H](CCc1ccccc1)O2 | > 100 µM (inactive) | > 100 µM (inactive) | > 100 µM (inactive) | > 100 µM (inactive) | > 100 µM (inactive) | > 100 µM (inactive) | > 100 µM (inactive) | > 100 µM (inactive) | > 100 µM (inactive) | – | 21.9 µM (inactive) | > 100 µM (inactive) | 99.3 µM (inactive) | > 100 µM (inactive) | > 100 µM (inactive) | > 100 µM (inactive) | 61.2 µM (inactive) | > 100 µM (inactive) | 82 µM (inactive) | 81.8 µM (inactive)
4 | Cc1ccc(S(=O)(=O)NC(=O)NCC(=O)NCC(=O)O)cc1 | > 100 µM (inactive) | > 100 µM (inactive) | > 100 µM (inactive) | – | > 100 µM (inactive) | > 100 µM (inactive) | > 100 µM (inactive) | > 100 µM (inactive) | > 100 µM (inactive) | > 100 µM (inactive) | > 100 µM (inactive) | > 100 µM (inactive) | > 100 µM (inactive) | > 100 µM (inactive) | > 100 µM (inactive) | > 100 µM (inactive) | – | > 100 µM (inactive) | > 100 µM (inactive) | > 100 µM (inactive)
5 | C=CCOC(=O)CC[N+]1=CCC(c2ccccc2)(c2ccccc2)O1 | > 100 µM (inactive) | > 100 µM (inactive) | > 100 µM (inactive) | > 100 µM (inactive) | > 100 µM (inactive) | > 100 µM (inactive) | > 100 µM (inactive) | > 100 µM (inactive) | > 100 µM (inactive) | > 100 µM (inactive) | > 100 µM (inactive) | > 100 µM (inactive) | > 100 µM (inactive) | > 100 µM (inactive) | > 100 µM (inactive) | > 100 µM (inactive) | > 100 µM (inactive) | – | – | > 100 µM (inactive)
6 | CCOP(=O)(OCC)/C(C#N)=C(\C)c1ccco1 | > 10 µM (inactive) | > 10 µM (inactive) | > 10 µM (inactive) | > 10 µM (inactive) | > 10 µM (inactive) | > 10 µM (inactive) | > 10 µM (inactive) | > 10 µM (inactive) | > 10 µM (inactive) | – | > 10 µM (inactive) | > 10 µM (inactive) | > 10 µM (inactive) | > 10 µM (inactive) | > 10 µM (inactive) | > 10 µM (inactive) | > 10 µM (inactive) | > 10 µM (inactive) | > 10 µM (inactive) | > 10 µM (inactive)
7 | COc1ccc2cc(-c3nc(N)nc(N4N=C(C)CC4(C)C)n3)c(=N)oc2c1 | 17.9 µM (inactive) | 17.5 µM (inactive) | 23.2 µM (inactive) | 20.2 µM (inactive) | 15.3 µM (inactive) | 16.5 µM (inactive) | 32.3 µM (inactive) | 19.3 µM (inactive) | 18.8 µM (inactive) | 13.5 µM (inactive) | 19.7 µM (inactive) | – | 19.1 µM (inactive) | 17.6 µM (inactive) | 21.5 µM (inactive) | 18.6 µM (inactive) | 22.2 µM (inactive) | – | 16 µM (inactive) | 11.7 µM (inactive)
8 | Cc1cc(N(CCC#N)CCC#N)ccc1C(/N=N/c1ccc(Cl)cc1)=N\NC(=O)c1cc(Cl)ccc1O | 30.6 µM (inactive) | > 100 µM (inactive) | 19.5 µM (inactive) | 70.5 µM (inactive) | 28.7 µM (inactive) | 40.2 µM (inactive) | 29.1 µM (inactive) | 25.1 µM (inactive) | 30.8 µM (inactive) | 16.7 µM (inactive) | – | – | 71.4 µM (inactive) | 43.3 µM (inactive) | 64.4 µM (inactive) | 36.7 µM (inactive) | 20.5 µM (inactive) | 30.1 µM (inactive) | > 100 µM (inactive) | 53.5 µM (inactive)
9 | CSC1=N/C(=C\c2ccco2)C(=O)N1CN1CCOCC1 | 48.6 µM (inactive) | 32 µM (inactive) | > 100 µM (inactive) | > 52.8 µM (inactive) | 75 µM (inactive) | > 100 µM (inactive) | > 60.1 µM (inactive) | > 93.1 µM (inactive) | > 63.1 µM (inactive) | > 100 µM (inactive) | – | 31.7 µM (inactive) | 29.2 µM (inactive) | 44.6 µM (inactive) | > 69.8 µM (inactive) | 19.4 µM (inactive) | > 100 µM (inactive) | > 100 µM (inactive) | 32.7 µM (inactive) | 59.7 µM (inactive)
10 | Cn1c(COC(=O)NC2CCCCC2)c(COC(=O)NC2CCCCC2)c2ccc3cc(Cl)c(Cl)cc3c21 | 6 µM (inactive) | 2.62 µM (inactive) | 3.66 µM (inactive) | 11.7 µM (inactive) | 34.2 µM (inactive) | 15.6 µM (inactive) | 12.7 µM (inactive) | 11.1 µM (inactive) | 10.2 µM (inactive) | – | 4.88 µM (inactive) | 6.79 µM (inactive) | 7.43 µM (inactive) | 11 µM (inactive) | 28.4 µM (inactive) | 16.4 µM (inactive) | – | 8.39 µM (inactive) | – | 14.8 µM (inactive)
11 | Clc1ccc2c(NCCCC/N=C/c3ccccc3)ccnc2c1 | 9.16 µM (inactive) | – | 11.6 µM (inactive) | 5.69 µM (inactive) | 4.33 µM (inactive) | 11 µM (inactive) | 3.01 µM (inactive) | 14.8 µM (inactive) | 13.6 µM (inactive) | 11.8 µM (inactive) | 5.52 µM (inactive) | 5.78 µM (inactive) | 6.24 µM (inactive) | – | 14.8 µM (inactive) | 13.4 µM (inactive) | 10 µM (inactive) | 11.1 µM (inactive) | 18.1 µM (inactive) | 2.82 µM (inactive)
12 | CN1CCc2nc(N)nc(-c3nc(N)nc4c3CN(C)CC4)c2C1 | > 100 µM (inactive) | > 100 µM (inactive) | > 100 µM (inactive) | > 100 µM (inactive) | > 100 µM (inactive) | > 100 µM (inactive) | > 100 µM (inactive) | > 100 µM (inactive) | > 100 µM (inactive) | > 100 µM (inactive) | > 100 µM (inactive) | > 100 µM (inactive) | > 100 µM (inactive) | > 100 µM (inactive) | > 100 µM (inactive) | > 100 µM (inactive) | > 100 µM (inactive) | – | > 100 µM (inactive) | > 100 µM (inactive)
13 | CCNC(=O)Nc1cccc(C)n1 | > 100 µM (inactive) | > 100 µM (inactive) | > 100 µM (inactive) | > 100 µM (inactive) | > 100 µM (inactive) | > 100 µM (inactive) | > 100 µM (inactive) | > 100 µM (inactive) | > 100 µM (inactive) | > 100 µM (inactive) | > 100 µM (inactive) | > 100 µM (inactive) | > 100 µM (inactive) | 99.1 µM (inactive) | > 100 µM (inactive) | > 100 µM (inactive) | 91.4 µM (inactive) | 68.9 µM (inactive) | – | > 100 µM (inactive)
14 | C=C1C[C@@H]2CC[C@@]34C[C@H]5O[C@H]6[C@@H](O3)[C@H]3O[C@H](CC[C@@H]3O[C@H]6[C@H]5O4)CC(=O)C[C@@H]3[C@@H](OC)[C@@H](C[C@H](O)CN)O[C@H]3C[C@H]3O[C@@H](CC[C@@H]1O2)C[C@@H](C)C3=C [ERIBULIN MESYLATE] | 0.00328 µM (active) | 0.0179 µM (active) | 0.0022 µM (active) | 0.00361 µM (active) | 0.000522 µM (active) | 0.00109 µM (active) | 0.00434 µM (active) | – | 0.00255 µM (active) | 0.00025 µM (active) | 0.00352 µM (active) | 0.00241 µM (active) | 0.00074 µM (active) | 0.000711 µM (active) | 0.126 µM (active) | 0.00703 µM (active) | 0.00412 µM (active) | – | 0.000516 µM (active) | 0.000791 µM (active)
15 | Cc1cnc(-n2c(C)nc3cc(Cl)ccc3c2=O)s1 | 24.5 µM (inactive) | 64.3 µM (inactive) | 74.6 µM (inactive) | 34.2 µM (inactive) | 32 µM (inactive) | 23.3 µM (inactive) | 20.4 µM (inactive) | 35.1 µM (inactive) | 42.5 µM (inactive) | 22 µM (inactive) | 47.6 µM (inactive) | 43 µM (inactive) | 22 µM (inactive) | 23.2 µM (inactive) | 1.28 µM (inactive) | 28.4 µM (inactive) | > 100 µM (inactive) | 10.6 µM (inactive) | – | 30.8 µM (inactive)
